Structures can show the parent of a compound that is named as a salt.

Series [1] has as its system Mattek Epigingival tissues. As to the kind of experiment: TER of Epigingival tissues upon sodium lauryl sulfate (SLS) challenge. The class given is cell-based, human. The text has this: Cell junctions are intercellular pathways that selectively permit the movement of molecules through cellular layers. In terms of biological function, cell junctions form a barrier between apical and basolateral cell surfaces and are crucial in the development and function of epithelial tissues. The ion permeability of cell junctions can be measured through a voltmeter in the form of Trans Epithelial Electric Resistance (TER). Measurements are quickly determined through an electrode with little to no disturbance to the cell layers. The resistance correlates to the integrity of the tissue, and confluent tissue layers with intact cell junctions lead to higher TER readings.
Epigingival tissues were purchased from Mattek Corporation for use in the experiment. These multilayered epithelial cells imitate human gingival tissue in-vivo and can withstand high concentrations of toothpaste solutions. Once the tissues arrived in the laboratory, individual tissues were reconstituted in 1 mL of Mattek provided GIN-100 maintenance medium overnight at 37° C. and 5% CO2 before testing of samples. The medium was changed every day after treatment.
TER measurement experiment was performed comparing the neat active ingredients in solution and their effects on the physical integrity of Mattek Epigingival tissues. […]

In series [2] the test system is intestinal mucosal barrier. The settings on record: reported; cited from earlier work.
Series [3] relates to P. gingivalis collagenase. As to the kind of experiment: Proteolytic assay: collagen DQ degradation by P. gingivalis culture supernatant. The series is classed as biochemical, Porphyromonas gingivalis. The settings on record: Example 6, FIGS. 35, 38, 41; over 5 hours. On the procedure: To determine the effects of formulations tested on the proteinase activity of P. gingivalis, a 48-h culture was centrifuged at 10 000×g for 10 min. […] The fluorescence corresponding to collagen degradation was monitored using a Synergy 2 microplate reader, with the excitation and emission wavelengths set at 495 nm and 525 nm, respectively. Test compounds or the fluorescent substrate alone were used as controls. For the proteolytic assay, the following ratio was used: 40% P. gingivalis supernatant+40% test compounds+20% DQ collagen. […]
To determine the effects of the Dual Zinc plus Arginine aqueous solution and dentifrice on the proteinase activity of P. gingivalis, a 48-h culture was centrifuged at 10 000×g for 10 min. Assay mixtures containing equal volumes of P. gingivalis culture supernatant, the fluorescent substrate collagen DQ™ (100 μg/mL; Molecular Probes, Eugene, Oreg., USA), and the Dual Zinc […] The fluorescence corresponding to collagen degradation was monitored using a Synergy 2 microplate reader, with the excitation and emission wavelengths set at 495 nm and 525 nm, respectively. Test compounds or the fluorescent substrate alone were used as controls. Leupeptin (1 μM) was used as a positive inhibitory control.

Series [4] deals with gingival keratinocyte barrier. The settings on record: previously reported; cited from earlier work.
The test system of series [5] is in vitro oral mucosa model. The settings on record: Rybakovsky 2017; cited from earlier work.
Series [6] concerns intestinal epithelial barrier. The settings on record: Sarkar 2019; in vivo (mouse) and in vitro models; cited from earlier work.
Series [7] relates to B11 gingival keratinocytes treated with TNF-α. As to the kind of experiment: TER with TNF-α challenge. The class given is cell-based, human. The settings on record: TNF-α 100 ng/ml. The protocol:
Tight junction integrity was assessed by determining the trans-epithelial electrical resistance (TER). B11 gingival keratinocytes were seeded onto Costar™ Transwell™ clear polyester membrane inserts (6.5-mm diameter; 0.4-μm pore size; Corning Co., Cambridge, Mass., USA) at 3×10^5 cells per insert. The basolateral and apical compartments were filled with 0.6 mL and 0.1 mL of complete K-SFM, respectively. Following a 72-h incubation, the conditioned medium was replaced with antibiotic-free K-SFM, and the cells were incubated for a further 16 h. The TER values were measured using an Ohm/voltmeter (EVOM2; World Precision Instruments, Sarasota, Fla., USA) at 0, 4, 8, 24, 48, and 72 h. Resistance values were calculated in Ohms (Ω)/cm 2 by multiplying the resistance values by the filter surface area. Results were expressed as percentage of the basal control values measured at time 0 h (100% values) for each condition.
(§1) Assays exposed cells to either TNFα only or TNFα+test composition. TNFα is known to cause tissue damage. A stock solution of recombinant TNF-α is prepared in sterile distilled water at 100 μg/ml. Thereafter, dilutions are made in keratinocyte culture medium. First dilution is 1/1000 to obtain 100 ng/ml. TNF-α and the test compounds are added simultaneously.
Keratinocyte barrier integrity was determined by monitoring transepithelial electrical resistance (TER). Briefly, keratinocytes (3×10^5 cells per insert; 0.1 ml) were seeded in the apical compartment of Costar™ Transwell™ clear polyester membrane inserts (6.5 mm in diameter, 0.4 μm pore size; Corning Co., Cambridge, Mass., USA), while the basolateral compartment was filled with 0.6 ml of culture medium. After 72-h of incubation, the conditioned culture medium was replaced with fresh antibiotic-free K-SFM, and the cells were further incubated for 16 h prior treating the cells. Recombinant human TNF-α (100 ng/ml; AnaSpec, Fremont, USA) and the formulations (final dilutions of 1/500, 1/1000, and 1/2000 (v/v for the aqueous solution; w/v for the dentifrice) under investigation were added to the apical compartment. The TER values were monitored using an ohm/voltmeter (EVOM^2; World Precision Instruments, Sarasota, Fla., USA) after 0, 6, 24, and 48 h of incubation. The TER values in Ohms (Ω)/cm^2 were determined by multiplying the resistance values by the surface area of the membrane filter. Results are expressed as the percentage of the basal control value measured at time 0-h (100% value).

Series [8] has the same test system. Description: FITC-dextran paracellular transport with TNF-α challenge. The series is classed as cell-based, human. The settings on record: TNF-α 100 ng/ml, 48-h exposure. The protocol:
The ability of test composition samples to enhance epithelial barrier integrity was assessed by monitoring the paracellular transport of FITC-conjugated 4.4-kDa dextran (FD-4; Sigma-Aldrich Canada Ltd.) across the keratinocyte layer. Briefly, B11 cells were cultured on Transwell filters, and FD-4 ([…] in culture medium) was added in the apical compartment in the presence of the test composition under investigation. Fluorescence in the basolateral compartment was measured at 0, 4, 8, 24, and 48 h using a Synergy 2 microplate reader (BioTek Instrument, Winooski, Vt., USA).
as §1
Gingival keratinocytes were cultured in the apical chamber of Transwell™ inserts as described above. Immediately after adding fluorescein isothiocyanate-conjugated dextran of 4.4 kDa (FD-4; 1 mg/ml in culture medium) to the apical compartment, the formulations under investigation were added in presence of recombinant TNF-α (100 ng/ml). Fluorescence in the basolateral compartment was recorded after 0, 2, 6, 24, and 48 h of incubation using a Synergy 2 microplate reader (BioTek Instruments; Winooski, Vt., USA).

The subject of series [9] is gingival keratinocytes. Description: MTT colorimetric cell viability assay. The class given is cell-based, human. On the procedure: The tight junction integrity of the B11 gingival keratinocytes was assessed by determining the transepithelial electrical resistance (TER). Briefly, B11 keratinocytes were seeded onto Costar™ Transwell™ clear polyester membrane inserts (6.5-mm diameter; 0.4-μm pore size; Corning Co., Cambridge, Mass., USA) at 3×10^5 cells per insert. The basolateral and apical compartments were filled with 0.6 mL and 0.1 mL of complete K-SFM, respectively, and the cultures were incubated for 3 days at 37° C. in a 5% CO2 atmosphere. The conditioned medium was then replaced with fresh antibiotic-free K-SFM. Following a further incubation (16 h), the TER values were measured using an Ohm/voltmeter (EVOM2; World Precision Instruments, Sarasota, Fla., USA) at 0, 2, 6, 24, and 48 h. Resistance values were calculated in Ohms (Ω)/cm^2 by multiplying the resistance values by the filter surface area. Results were expressed as a percentage of the basal control values measured at time 0 h (100% values) for each condition. […] The effect of these treatments on cell viability was assessed using an MTT (3-[4,5-[…]-2-yl]-2,5diphenyltetrazolim bromide) colorimetric assay, according to the manufacturer's instructions (Roche Diagnostics, Laval, QC, Canada).

Series [10] has as its system gingival keratinocytes. As to the kind of experiment: Keratinocyte proliferation (CellTracker Green CMFDA). The settings on record: TNF-α 100 ng/ml. The class given is cell-based, human.
Protocol: Gingival keratinocytes were seeded into wells (20,000 cells per well) of a 96-well microplate (0.1 ml/well) and incubated overnight at 37° C. in a 5% CO2 atmosphere to allow cell adhesion. The culture medium was then removed, and the cells were treated or not with TNF-α (100 ng/ml) with or without the formulations under investigation for 72 h at 37° C. in a 5% CO2 atmosphere. Cell proliferation was measured using the fluorescent CellTracker™ Green CMFDA (5-chloromethylfluorescein diacetate) Dye according to the manufacturer's instructions (Thermo Fisher Scientific). Untreated control cells were assigned a value of 100%. Briefly, after 24 h of stimulation, the supernatant was removed and the cells were washed with PBS. […] Fluorescent keratinocytes were also visualized using an inverted Olympus FS X100 fluorescent microscope.

In the case of `N=C(N)NCCC[C@H](N)C(=O)O` [Arginine, arginine], the “effect on SLS-induced increase in tissue permeability (TER ratio)” value in series [1] (tissues treated 3x over 3 days, then 0.5% SLS for 2 minutes, FIGS. 1-4) is recorded as “minimal effect”. Moreover, in series [2], the “intestinal mucosal barrier functions” value is recorded as “improve the intestinal mucosal barrier functions”.
Turning to `CC(=O)N[C@@H](CC(C)C)C(=O)N[C@@H](CC(C)C)C(=O)N[C@H](C=O)CCCNC(=N)N` [Leupeptin, reference compound], the “inhibition of P. gingivalis collagenase activity” value in [3] was “inhibited P. gingivalis collagenase activity”.
Consider `CCCCCCCCCCCCOS(=O)(=O)[O-].[Na+]` [SLS, Sodium Lauryl Sulfate, reference compound], for which the “tissue permeability after SLS treatment” value in [1] (0.5% SLS solution for 2 minutes) is recorded as “increase in tissue permeability”.
On to `Nc1nc(N)nc(-c2cc(Cl)ccc2Cl)n1` [irsogladine maleate], for which the “protection of gingival keratinocyte barrier against TNF-α-induced damage” value (from here on “protection … against TNF-α-induced damage”) in [4] is recorded as “reversed the TNF-α-induced disruption of the gingival epithelial barrier”.
Regarding `[Zn]` [zinc], the “epithelial barrier function (transepithelial electrical resistance)” value in series [5] was “improve epithelial barrier function”. For the same compound, the “protection of intestinal epithelial barrier from Shigella flexneri” value in [6] was “allows protection of the intestinal epithelial barrier from damage mediated by the pathogen Shigella flexneri”.
As for TNF-α, the entries for the “decrease of TER by TNF-α” value in [7] (6 h), in series [7] (24 h) and in series [7] (48 h) were 25.8%, 49.3% and 85.1%, respectively. Besides, in [8], the “increase of FD-4 transport by TNF-α” value came to 50.8%. Further, the “viability of gingival keratinocytes (MTT)” value in series [9] was “no significant loss of cell viability”. The “reduction of cell proliferation by TNF-α” value in series [10] is on record as 30.2%.
On to epigallocatechin-3-gallate, for which the “protection … against TNF-α-induced damage” value in [4] is given as “prevented epithelial barrier disruption”.
theaflavins: the “protection … against TNF-α-induced damage” value in [4] is “prevented epithelial barrier disruption”.

The record behind these values is patent US20210308028A1, “Compositions and Methods for Maintaining and Protecting Tissue Integrity and Barrier Function” (Colgate-Palmolive Company, priority 2020, published 2021).
